According to ChEMBL document CHEMBL4145665, “Structure-Activity Relationship of Novel and Selective Biaryl-Chroman GPR40 AgoPAMs” (ACS Med Chem Lett, 2018):
pEC50: −log10 of the molar value.

Target: T1, Free fatty acid receptor 1 (Homo sapiens, UniProt O14842)
Assay: Agonist activity at recombinant human GPR40 expressed in HEK293 cells assessed as increase in IP1 accumulation measured after 60 mins in presence of 100% human serum by HTRF assay
Format: functional, cell-based
Details: not given

T1 sequence (O14842 whole entry): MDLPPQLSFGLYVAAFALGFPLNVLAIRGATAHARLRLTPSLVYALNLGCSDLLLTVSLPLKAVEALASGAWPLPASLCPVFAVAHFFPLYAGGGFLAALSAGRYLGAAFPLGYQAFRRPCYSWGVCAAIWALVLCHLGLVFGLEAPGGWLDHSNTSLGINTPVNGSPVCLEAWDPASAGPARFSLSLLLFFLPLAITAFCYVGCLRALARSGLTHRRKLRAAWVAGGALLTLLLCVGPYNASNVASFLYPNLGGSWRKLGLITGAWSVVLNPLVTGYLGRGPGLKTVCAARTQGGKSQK

Compound | pEC50
COc1cc(-c2cnc(C3CCc4ccc([C@H](C5CC5)[C@H](C)C(=O)O)cc4O3)c(F)c2)c(F)cn1 (stereo in doubt; 31) [listing 1 of 2 here] | 6.12
COc1cc(-c2ccc(C3CCc4ccc([C@H](C5CC5)[C@H](C)C(=O)O)cc4O3)nc2)ccn1 (stereo in doubt; 32) [listing 1 of 2 here] | 6.08
COc1cc(-c2ccc(C3CCc4ccc([C@H](C5CC5)[C@H](C)C(=O)O)cc4O3)nc2)ccn1 (stereo in doubt; 33) [listing 1 of 2 here] | 6.34

Test system: Rattus norvegicus
Assay: Antidiabetic activity in Sprague-Dawley rat assessed as inhibition of blood glucose AUC at 3 mg/kg, po treated prior to dextrose challenge and measured after 20 to 60 mins by IPGTT relative to control
Format: functional
Details: Rattus norvegicus, Sprague-Dawley, po

Compound | inhibition in vivo at 3 mg/kg
COc1ccc(F)c(-c2ccc(C3CCc4ccc([C@H](C5CC5)[C@H](C)C(=O)O)cc4O3)nc2)c1 (stereo in doubt; 17) [listing 1 of 2 here] | 100%

Target: T1, Free fatty acid receptor 1
Assay: Agonist activity at recombinant human GPR40 expressed in HEK293 cells assessed as increase in IP1 accumulation measured after 60 mins by HTRF assay relative to AM-1638
Format: functional, cell-based
Details: not given

Compound | max activation
COc1ccc(F)c(-c2ccc(C3CCc4ccc([C@H](C5CC5)[C@H](C)C(=O)O)cc4O3)cc2)c1 (stereo in doubt; 14) | > 179%
COc1ccc(F)c(-c2ccc(C3CCc4ccc([C@H](C5CC5)[C@H](C)C(=O)O)cc4O3)cc2)c1 (stereo in doubt; 15) | > 179%
COc1ccc(F)c(-c2ccc(C3CCc4ccc([C@H](C5CC5)[C@H](C)C(=O)O)cc4O3)nc2)c1 (stereo in doubt; 16) | > 179%
COc1ccc(F)c(-c2ccc(C3CCc4ccc([C@H](C5CC5)[C@H](C)C(=O)O)cc4O3)nc2)c1 (stereo in doubt; 17) [listing 2 of 2 here] | > 179%
COc1ccc(F)c(-c2ccc(C3CCc4ccc([C@H](C5CC5)[C@H](C)C(=O)O)cc4O3)cn2)c1 (stereo in doubt; 18) | > 179%
COc1ccc(F)c(-c2ccc(C3CCc4ccc([C@H](C5CC5)[C@H](C)C(=O)O)cc4O3)cn2)c1 (stereo in doubt; 19) | > 179%
COc1cc(-c2ccc(C3CCc4ccc([C@H](C5CC5)[C@H](C)C(=O)O)cc4O3)cc2)c(F)cn1 (stereo in doubt; 20) | > 179%
COc1cc(-c2ccc(C3CCc4ccc([C@H](C5CC5)[C@H](C)C(=O)O)cc4O3)cc2)c(F)cn1 (stereo in doubt; 21) | > 179%
COc1cc(-c2ccc(C3CCc4ccc([C@H](C5CC5)[C@H](C)C(=O)O)cc4O3)cc2)ccn1 (stereo in doubt; 22) | > 179%
COc1cc(-c2ccc(C3CCc4ccc([C@H](C5CC5)[C@H](C)C(=O)O)cc4O3)cc2)ccn1 (stereo in doubt; 23) | > 179%
COc1cc(-c2ccc(C3CCc4ccc([C@H](C5CC5)[C@H](C)C(=O)O)cc4O3)c(F)c2)c(F)cn1 (stereo in doubt; 26) | > 179%
COc1cc(-c2ccc(C3CCc4ccc([C@H](C5CC5)[C@H](C)C(=O)O)cc4O3)c(F)c2)c(F)cn1 (stereo in doubt; 27) | > 179%
COc1cc(-c2ccc(C3CCc4ccc([C@H](C5CC5)[C@H](C)C(=O)O)cc4O3)nc2)c(F)cn1 (stereo in doubt; 28) | > 179%
COc1cc(-c2cnc(C3CCc4ccc([C@H](C5CC5)[C@H](C)C(=O)O)cc4O3)c(F)c2)c(F)cn1 (stereo in doubt; 30) | > 179%
COc1cc(-c2cnc(C3CCc4ccc([C@H](C5CC5)[C@H](C)C(=O)O)cc4O3)c(F)c2)c(F)cn1 (stereo in doubt; 31) [listing 2 of 2 here] | > 179%
COc1cc(-c2ccc(C3CCc4ccc([C@H](C5CC5)[C@H](C)C(=O)O)cc4O3)nc2)ccn1 (stereo in doubt; 32) [listing 2 of 2 here] | > 179%
COc1cc(-c2ccc(C3CCc4ccc([C@H](C5CC5)[C@H](C)C(=O)O)cc4O3)nc2)ccn1 (stereo in doubt; 33) [listing 2 of 2 here] | > 179%

Target: T1, Free fatty acid receptor 1
Assay: Agonist activity at recombinant human GPR40 expressed in HEK293 cells assessed as increase in IP1 accumulation measured after 60 mins in presence of 100% human serum by HTRF assay relative to AM-1638
Format: functional, cell-based
Details: not given

Compound | max activation
COc1ccc(F)c(-c2ccc(C3CCc4ccc([C@H](C5CC5)[C@H](C)C(=O)O)cc4O3)cc2)c1 (stereo in doubt; 14) | > 179%
COc1ccc(F)c(-c2ccc(C3CCc4ccc([C@H](C5CC5)[C@H](C)C(=O)O)cc4O3)cc2)c1 (stereo in doubt; 15) | > 179%
COc1ccc(F)c(-c2ccc(C3CCc4ccc([C@H](C5CC5)[C@H](C)C(=O)O)cc4O3)nc2)c1 (stereo in doubt; 16) | > 179%
COc1ccc(F)c(-c2ccc(C3CCc4ccc([C@H](C5CC5)[C@H](C)C(=O)O)cc4O3)nc2)c1 (stereo in doubt; 17) [listing 2 of 2 here] | > 179%
COc1ccc(F)c(-c2ccc(C3CCc4ccc([C@H](C5CC5)[C@H](C)C(=O)O)cc4O3)cn2)c1 (stereo in doubt; 18) | > 179%
COc1ccc(F)c(-c2ccc(C3CCc4ccc([C@H](C5CC5)[C@H](C)C(=O)O)cc4O3)cn2)c1 (stereo in doubt; 19) | > 179%
COc1cc(-c2ccc(C3CCc4ccc([C@H](C5CC5)[C@H](C)C(=O)O)cc4O3)cc2)c(F)cn1 (stereo in doubt; 20) | > 179%
COc1cc(-c2ccc(C3CCc4ccc([C@H](C5CC5)[C@H](C)C(=O)O)cc4O3)cc2)c(F)cn1 (stereo in doubt; 21) | > 179%
COc1cc(-c2ccc(C3CCc4ccc([C@H](C5CC5)[C@H](C)C(=O)O)cc4O3)cc2)ccn1 (stereo in doubt; 22) | > 179%
COc1cc(-c2ccc(C3CCc4ccc([C@H](C5CC5)[C@H](C)C(=O)O)cc4O3)cc2)ccn1 (stereo in doubt; 23) | > 179%
COc1cc(-c2ccc(C3CCc4ccc([C@H](C5CC5)[C@H](C)C(=O)O)cc4O3)c(F)c2)c(F)cn1 (stereo in doubt; 26) | > 179%
COc1cc(-c2ccc(C3CCc4ccc([C@H](C5CC5)[C@H](C)C(=O)O)cc4O3)c(F)c2)c(F)cn1 (stereo in doubt; 27) | > 179%
COc1cc(-c2ccc(C3CCc4ccc([C@H](C5CC5)[C@H](C)C(=O)O)cc4O3)nc2)c(F)cn1 (stereo in doubt; 28) | > 179%
COc1cc(-c2cnc(C3CCc4ccc([C@H](C5CC5)[C@H](C)C(=O)O)cc4O3)c(F)c2)c(F)cn1 (stereo in doubt; 30) | > 179%
COc1cc(-c2cnc(C3CCc4ccc([C@H](C5CC5)[C@H](C)C(=O)O)cc4O3)c(F)c2)c(F)cn1 (stereo in doubt; 31) [listing 2 of 2 here] | > 179%
COc1cc(-c2ccc(C3CCc4ccc([C@H](C5CC5)[C@H](C)C(=O)O)cc4O3)nc2)ccn1 (stereo in doubt; 32) [listing 2 of 2 here] | > 179%
COc1cc(-c2ccc(C3CCc4ccc([C@H](C5CC5)[C@H](C)C(=O)O)cc4O3)nc2)ccn1 (stereo in doubt; 33) [listing 2 of 2 here] | > 179%

Target: Free fatty acid receptor 1 (Rattus norvegicus) (UniProt Q8K3T4)
Assay: Agonist activity at recombinant rat GPR40 expressed in CHOK1 cells assessed as increase in IP1 accumulation measured after 60 mins by HTRF assay relative to AM-1638
Format: functional, cell-based
Details: not given

Chain of Free fatty acid receptor 1 (Rattus norvegicus) (Q8K3T4 whole entry): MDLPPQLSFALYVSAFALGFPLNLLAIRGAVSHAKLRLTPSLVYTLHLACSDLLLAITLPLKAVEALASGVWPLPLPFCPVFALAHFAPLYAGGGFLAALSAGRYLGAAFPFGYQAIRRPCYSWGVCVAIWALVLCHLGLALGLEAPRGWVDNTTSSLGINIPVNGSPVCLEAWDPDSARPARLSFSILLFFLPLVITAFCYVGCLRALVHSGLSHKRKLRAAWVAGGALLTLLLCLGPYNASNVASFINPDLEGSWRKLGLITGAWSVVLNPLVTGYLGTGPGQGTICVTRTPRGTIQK

Compound | max activation
COc1ccc(F)c(-c2ccc(C3CCc4ccc([C@H](C5CC5)[C@H](C)C(=O)O)cc4O3)cc2)c1 (stereo in doubt; 14) | > 370%
COc1ccc(F)c(-c2ccc(C3CCc4ccc([C@H](C5CC5)[C@H](C)C(=O)O)cc4O3)nc2)c1 (stereo in doubt; 16) | > 370%

Test system: Rattus norvegicus
Assay: Antidiabetic activity in po dosed Goto Kakizaki rats assessed as plasma concentration required for reduction in blood glucose excursion at MED pretreated for 1 hr followed by dextrose challenge measured 3 hrs post dose by OGTT
Format: functional, organism-based
Details: not given

Compound | Cp
COc1ccc(F)c(-c2ccc(C3CCc4ccc([C@H](C5CC5)[C@H](C)C(=O)O)cc4O3)cc2)c1 (stereo in doubt; 14) | 3 µM
COc1ccc(F)c(-c2ccc(C3CCc4ccc([C@H](C5CC5)[C@H](C)C(=O)O)cc4O3)nc2)c1 (stereo in doubt; 16) | 13.9 µM

Test system: not listed separately
Assay: Lipophilicity, log D of the compound at pH 7 at 100 uM by HPLC method
Format: physicochemical
Details: buffer

Compound | logD at 100 µM
COc1cc(-c2ccc(C3CCc4ccc([C@H](C5CC5)[C@H](C)C(=O)O)cc4O3)nc2)ccn1 (stereo in doubt; 32) [listing 1 of 2 here] | 1.74
